Entries after “also recorded” stand apart in the source; their conditions may differ. Where a SMILES comes first, the peptide text is derived from it. [ ]: non-standard residue; d: D form. ξ: configuration not given here. ξR = N=C(N)NCCCC(N)C(=O)O; ξE = NC(CCC(=O)O)C(=O)O
What was measured:
[1] = system: chicks with Anisomycin-induced amnesia; experiment: passive avoidance task, Anisomycin-induced amnesia in chicks; assay type: in vivo, chick; conditions: 8 μg/hemisphere ic pre-training; Anisomycin 125 nmol/hemisphere ic immediately post-training; tested 3 hr post training
Description: FIG. 7 Effect of Ac-rER on Anisomycin-induced amnesia in chicks. Chicks were injected ic with 8 μg/hemisphere of Ac-rER 60 min pre-training followed by ic injection of Anisomycin (125 nmol/hemisphere). immediately post-training. Controls were injected with saline. Chicks were tested 3 hr post training. […] Each chick was trained and tested only once and differences between groups were tested for statistical significance by G-test (Sokal, and Rohlf, 1995).
Commercially obtained Ross Chunky eggs were incubated and hatched in brooders and held until 16±6 hours old. Chicks were placed in pairs in small aluminium pens. Following an equilibration period of an hour, the chicks were pretrained and trained essentially as described by Lossner and Rose (J. Neurochem. 41, 1357-1363 (1983), the contents of which are incorporated herein by reference). Pretraining involved three 10 s presentations of a small (2 mm diameter) white bead, at approximately 5 minute intervals. […] Two training techniques were used: “strong” and “weak” training. […] Recall is calculated as a percent avoidance score (percentage of chicks which avoid the chrome bead) and as a discrimination score (percentage of chicks which avoid the chrome but peck at the white bead). […]

[2] = system: chicks trained on a weak training task; experiment: one trial passive avoidance task, weak training (10% methylanthranilate), memory enhancement; assay type: in vivo, chick; conditions: for bio-activity as a cognitive enhancer: chick, D/L forms compared with RER; for memory retention (percent showing avoidance and discrimination), FIG. 1: weak aversive learning task, ic injection 60 min pre-training, saline control
Description: FIG. 1 The effect of different D/L forms of tripeptide as memory enhancers on weak memory. Chicks were injected ic with different D/L forms of tripeptide 60 min pre-training and tested 24 after. The control group received saline. […] Each chick was trained and tested only once and differences between groups were tested for statistical significance by G-test (Sokal, and Rohlf, 1995). Note that the G-test reflects group differences, and so there are no error bars on the figures.
FIG. 3 The effect of Ac-rER as memory enhancer in chicks trained on a weak training task (WT). Chicks were injected 2×ip injections, 1 mg/100 gr bw, 30 min and 6 hr pre-training and tested 24 hr later. The control groups received Ac-REr. […] Each chick was trained and tested only once and differences between groups were tested for statistical significance by G-test (Sokal, and Rohlf, 1995).
FIG. 5 Dose-dependence of the effect of Ac-rER in weak training. Chicks were injected ip with different doses of the Ac-rER 60 min pre-training and tested 24 after. The control group received saline. […] Each chick was trained and tested only once and differences between groups were tested for statistical significance by G-test (Sokal, and Rohlf, 1995).
FIG. 6 Stability of Ac-rER. Chicks were injected ip with 2 mg/100 g bw of Ac-rER 1, 2, 4, 6 and 12 hr before training and tested 24 hr later. The control group received saline. […] Each chick was trained and tested only once and differences between groups were tested for statistical significance by G-test (Sokal, and Rohlf, 1995). […]
Commercially obtained Ross Chunky eggs were incubated and hatched in brooders and held until 16±6 hours old. Chicks were placed in pairs in small aluminium pens. Following an equilibration period of an hour, the chicks were pretrained and trained essentially as described by Lossner and Rose (J. Neurochem. 41, 1357-1363 (1983), the contents of which are incorporated herein by reference). Pretraining involved three 10 s presentations of a small (2 mm diameter) white bead, at approximately 5 minute intervals. […] Two training techniques were used: “strong” and “weak” training. In both, 5 to 10 minutes after the last pre-training trial, chicks were trained by a 10 s presentation of a 4 mm diameter chrome bead, which had been dipped in the bitter-tasting methylanthranilate. Control chicks pecked at a water-coated or dry bead. In the “strong” version of the task, 100% methylanthranilate was used. In the “weak” version, 10% methylanthranilate was used. Chicks spontaneously pecked at the training or control beads within 20 s. Chicks that pecked at the bitter bead evinced a disgust reaction and would not normally peck at a similar, but dry bead for some hours subsequently. At various times following training chicks were tested, by offering them a dry 4 mm diameter chrome bead, followed 10 minutes later by a small (2 mm diameter) white bead, each for 20 to 30 s. Animals were tested by an experimenter blind as to which treatment each chick had received. Chicks are considered to remember the task if they avoid the chrome bead at test but peck at the white bead (discriminate), and to have forgotten it if they peck at both beads. Recall is calculated as a percent avoidance score (percentage of chicks which avoid the chrome bead) and as a discrimination score (percentage of chicks which avoid the chrome but peck at the white bead). […] Each chick was trained and tested only once and differences between groups tested for statistical significance by g-test described by Sokal and Rohlf (biometry: the Principles and Practice of Statistics in Biological Research (2nd edition), W H Freeman, New York (1981)), the contents of which are incorporated herein by reference. […]

[3] = system: chicks with MK801-induced amnesia; experiment: passive avoidance task, MK801-induced amnesia in chicks; assay type: in vivo, chick; conditions: 8 μg/hemisphere ic pre-training; MK801 0.020 mg/100 gr ip pre-training; tested 3 hr later
Description: FIG. 8 Effect of Ac-rER on MK801-induced amnesia. Chicks were injected ic with 8 μg/hemisphere of Ac-rER 60 min pre-training followed by ip injection of MK80 1 (0.020 mg/100 gr) pre-training. Controls were injected with saline. Chicks were tested 3 hr later. […] Each chick was trained and tested only once and differences between groups were tested for statistical significance by G-test (Sokal, and Rohlf, 1995).
Commercially obtained Ross Chunky eggs were incubated and hatched in brooders and held until 16±6 hours old. Chicks were placed in pairs in small aluminium pens. Following an equilibration period of an hour, the chicks were pretrained and trained essentially as described by Lossner and Rose (J. Neurochem. 41, 1357-1363 (1983), the contents of which are incorporated herein by reference). Pretraining involved three 10 s presentations of a small (2 mm diameter) white bead, at approximately 5 minute intervals. […] Two training techniques were used: “strong” and “weak” training. In both, 5 to 10 minutes after the last pre-training trial, chicks were trained by a 10 s presentation of a 4 mm diameter chrome bead, which had been dipped in the bitter-tasting methylanthranilate. […] Recall is calculated as a percent avoidance score (percentage of chicks which avoid the chrome bead) and as a discrimination score (percentage of chicks which avoid the chrome but peck at the white bead). […]

[4] = system: chicks with Aβ1-42-induced amnesia; experiment: passive avoidance task in chicks with Aβ-induced amnesia; assay type: in vivo, chick; conditions: for protection against amyloid-beta induced memory loss: chick
Description: FIG. 2 The effect of Ac-rER on memory in chicks with Aβ-induced amnesia. Chicks were injected 2×ip, 1 mg/100 gr bw, with Ac-rER, 6 hr and 12 hr pre-training. Aβ1-42 (2 μg/hemisphere) was injected ic 60 min pre-training. Chicks were tested 24 hr later. […] Each chick was trained and tested only once and differences between groups were tested for statistical significance by G-test (Sokal, and Rohlf, 1995).
Commercially obtained Ross Chunky eggs were incubated and hatched in brooders and held until 16±6 hours old. Chicks were placed in pairs in small aluminium pens. Following an equilibration period of an hour, the chicks were pretrained and trained essentially as described by Lossner and Rose (J. Neurochem. 41, 1357-1363 (1983), the contents of which are incorporated herein by reference). Pretraining involved three 10 s presentations of a small (2 mm diameter) white bead, at approximately 5 minute intervals. […] Two training techniques were used: “strong” and “weak” training. In both, 5 to 10 minutes after the last pre-training trial, chicks were trained by a 10 s presentation of a 4 mm diameter chrome bead, which had been dipped in the bitter-tasting methylanthranilate. Control chicks pecked at a water-coated or dry bead. In the “strong” version of the task, 100% methylanthranilate was used. In the “weak” version, 10% methylanthranilate was used. Chicks spontaneously pecked at the training or control beads within 20 s. Chicks that pecked at the bitter bead evinced a disgust reaction and would not normally peck at a similar, but dry bead for some hours subsequently. At various times following training chicks were tested, by offering them a dry 4 mm diameter chrome bead, followed 10 minutes later by a small (2 mm diameter) white bead, each for 20 to 30 s. Animals were tested by an experimenter blind as to which treatment each chick had received. […] Recall is calculated as a percent avoidance score (percentage of chicks which avoid the chrome bead) and as a discrimination score (percentage of chicks which avoid the chrome but peck at the white bead). […]

[5] = system: chicks trained on a weak training task; conditions: as described in WO02/083729; cited from earlier work

| Molecule | effect on Anisomycin-induced amnesia, FIG. 7 [1] | performance on the weak training task, FIG. 3 ([2]; 2×ip injections, 1 mg/100 gr bw, 30 min and 6 hr pre-training, tested 24 hr later, control Ac-REr) | bio-activity as a cognitive enhancer [2] | bio-activity as a cognitive enhancer ([2]; listed as Ac-RER) | dose sufficient to enhance memory, FIG. 5 ([2]; ip 60 min pre-training, tested 24 after) [mg per 100 g body weight] | time prior to training at which injection still acts as cognitive enhancer and neuroprotective agent ([2]; ip, FIGS. 2 and 3) | persistence of effect: time before training at which peptide is effective, FIG. 6 ([2]; single ip injection of 1-2 mg/100 g bw, tested 24 hr later) [h] | time of administration before training at which peptide is most effective, FIG. 6 ([2]; single ip injection, weak training) [h] | memory retention (percent showing avoidance and discrimination), FIG. 1 ([2]; tested 24 after) | memory retention (percent showing avoidance and discrimination), FIG. 1 ([2]; tested 24 after, listed as Ac-ReR) | effect on MK801-induced amnesia, FIG. 8 [3] | memory retention in Aβ-induced amnesia, FIG. 2 ([4]; 2×ip, 1 mg/100 gr bw, 6 hr and 12 hr pre-training, Aβ1-42 2 μg/hemisphere ic 60 min pre-training, tested 24 hr later) | protection against amyloid-beta induced memory loss [4] | protection against amyloid-beta induced memory loss ([4]; listed as Ac-RER) | time prior to training at which injection is still effective (maximum), unprotected L-form [5] [h] |
| --- | --- | --- | --- | --- | --- | --- | --- | --- | --- | --- | --- | --- | --- | --- | --- |
| CC(=O)NC(CCCNC(=N)N)C(=O)NC(CCC(=O)O)C(=O)N[C@@H](CCCNC(=N)N)C(N)=O (stereo partly drawn) [Ac-rER] (Ac-[ξR]-[ξE]-Arg-NH2) | prevents either of these drugs from inducing amnesia | significantly enhanced; also recorded: effective when injected peripherally | active as a cognitive enhancer | effective as a cognitive enhancer | 1 | up to 12 hr | ≤ 12 | 4 | enhances memory retention to the levels observed in the chick treated with the Ac-L/L/L/ form | significant but lesser effects | prevents either of these drugs from inducing amnesia | restores cognitive function and prevents memory loss | protecting against amyloid-beta induced memory loss | protecting against amyloid-beta | – |
| Arg-Glu-Arg [RER] | – | – | – | – | – | – | – | – | – | – | – | – | – | – | ≤ 3 |
